{
  "source": "patent US5543410A",
  "about": "“Pharmacological use of phthaloylhydrazide derivatives; combination and application thereof” (L.I.M.A.D. Limited, priority 1993, dated 1996)",
  "key": {"[1]": {"test_system": "piglets affected by dysentery", "assay": "dysentery in piglets", "format": "in vivo", "method": "Experiments were performed with piglets weighing from 30 to 40 kgs, which were affected by dysentery.\nNevertheless, symptoms reappeared six to seven hours later in one group of animals. This factor rendered repeated administration of the drug necessary."}, "skin diseases": {"test_system": "skin diseases", "details": "water-soluble applications and ointments"}, "[2]": {"test_system": "proctitis attributable to radiation therapy", "details": "in vivo", "text": "B., a patient who was […], complained of burning sensations in the anus, along with frequent and painful urination, after having received radiation therapy for a period of forty-five days. During a rectosigmoidoscopy examination, intense edema and contact hemorrhaging within the rectal mucosae were observed above the tumor. The diagnosis was: proctitis and cystitis arising from radiation therapy. On account of a lack of specific therapeutic measures, the drug was prescribed for the patient according to a dose of 100 mg per day."}, "[3]": {"details": "aqueous solutions, sodium salt"}, "metabolic products": {"assay": "metabolic products", "format": "in vivo", "details": "metabolite"}, "[4]": {"test_system": "Sprague-Dawley Rats' Lipid Metabolism and Serum Lipoproteins", "details": "reducing serum cholesterol; cited from earlier work"}},
  "data": [
    {"smiles": "Nc1ccc2c(=O)[nH][nH]c(=O)c2c1", "note": "[4-aminophthaloylhydrazide]", "values": [
      {"measurement": "therapeutic effect", "setting": "[1]; 10, 25, and 50 mg/kg, third series", "value": "relatively insignificant"}
    ]},
    {"smiles": "Nc1cccc2c(=O)[nH][nH]c(=O)c12", "values": [
      {"measurement": "effectiveness in external use", "setting": "skin diseases", "value": "more effective"},
      {"measurement": "effectiveness in proctitis attributable to radiation therapy", "setting": "[2]", "value": "effective for proctitis attributable to radiation therapy"},
      {"measurement": "time to improvement of condition, diarrhea ceased", "setting": "[1]; 50 mg/kg, first series", "value": "sixty"},
      {"measurement": "time to reappearance of symptoms", "setting": "[1]; 50 mg/kg, first series, one group of animals", "value": "six to seven"},
      {"measurement": "period remaining fully active", "setting": "[3]", "value": "sixty to eighty"}
    ]},
    {"smiles": "Nc1ccc(C(=O)O)c(C(=O)O)c1", "note": "[5-aminophthalic acid]", "values": [
      {"measurement": "excretion unmodified", "setting": "metabolic products", "value": "Most of the aminophthalic acid is expelled from the body without undergoing modification"}
    ]},
    {"smiles": "O=c1[nH][nH]c(=O)c2ccccc12", "note": "[2,3-dihydrophthalazine-1,4-dione]", "values": [
      {"measurement": "activity", "setting": "[4]", "value": "extremely high level of activity"}
    ]}
  ]
}
